# Measurements as given in patent publication US5714155A, “Ethylenediamine derivative in a cosmetic or dermatological composition, and composition containing in particular a product having an irritant side effect” (Societe L'oreal S.A., priority 1994, dated 1998).
# System: contraction of guinea pig ileum by substance P
# Test: Antagonism of the in vitro contraction of guinea pig ileum by substance P
# Type: cell-based
# Conditions: for substance P antagonism (conclusion of the tests): conclusion from NK1 binding and guinea pig ileum tests
# Method: b). Model of antagonism of the in vitro contraction of guinea pig ileum by substance P (10 nM) according to the technique described by Dion et al., Life Sci. 41: 2269-78 (1987) and Patacchini et al., Eur. J. Pharmacol. 215: 93-8 (1992).
Structure (SMILES),"inhibition at 1 µM (Cavia porcellus, 1 μM, substance P 10 nM) [%]","inhibition at 10 µM (Cavia porcellus, 10 μM, substance P 10 nM) [%]","inhibition at 100 µM (Cavia porcellus, 100 μM, substance P 10 nM) [%]",substance P antagonism (conclusion of the tests)
"Cc1cc(C)cc(CNCCNCc2cc(C)cc(C)c2)c1 [Example 1, N,N'-bis(3,5-dimethylbenzyl)ethylenediamine]",-24,-92,-100,substance P antagonists
"COc1cc(CNCCNCc2cc(OC)cc(OC)c2)cc(OC)c1 [Example 2, N,N'-bis(3,5-dimethoxybenzyl)ethylenediamine]",,,,substance P antagonists
